According to article PMC12706144, “Potential Antidiabetic Inhibitors and Antimicrobials from the Fungus Fusarium lichenicola Isolated from the Cicada Cryptotympana mandarina Distant, 1891” (Journal of Microbiology and Biotechnology, 2025):

Tests used:
[1] = test system: Gram-positive and Gram-negative bacteria and fungi; conditions: cited from earlier work
[2] = test system: S. aureus, B. subtilis, E. coli, and Klebsiella pneumoniae; conditions: cited from earlier work
[3] = test system: S. aureus, B. subtilis, E. coli, S. cerevisiae; conditions: cited from earlier work
α-glucosidase = α-glucosidase (Saccharomyces cerevisiae, UniProt P53341); format: biochemical; conditions: Table 4, reference compounds, independent experiment; read-out: IC50, α-Glucosidase inhibition
[4] = test system: various bacterial pathogens; set-up: method as in PMID 34394014; conditions: cited from earlier work
α-amylase = target: T1, α-amylase (Sus scrofa, UniProt P00690); assay: α-Amylase inhibitory assay (starch azure); format: biochemical; conditions: Table 4, reference compounds, independent experiment; read-out: IC50, α-Amylase inhibition
T1 sequence (P00690 16-511): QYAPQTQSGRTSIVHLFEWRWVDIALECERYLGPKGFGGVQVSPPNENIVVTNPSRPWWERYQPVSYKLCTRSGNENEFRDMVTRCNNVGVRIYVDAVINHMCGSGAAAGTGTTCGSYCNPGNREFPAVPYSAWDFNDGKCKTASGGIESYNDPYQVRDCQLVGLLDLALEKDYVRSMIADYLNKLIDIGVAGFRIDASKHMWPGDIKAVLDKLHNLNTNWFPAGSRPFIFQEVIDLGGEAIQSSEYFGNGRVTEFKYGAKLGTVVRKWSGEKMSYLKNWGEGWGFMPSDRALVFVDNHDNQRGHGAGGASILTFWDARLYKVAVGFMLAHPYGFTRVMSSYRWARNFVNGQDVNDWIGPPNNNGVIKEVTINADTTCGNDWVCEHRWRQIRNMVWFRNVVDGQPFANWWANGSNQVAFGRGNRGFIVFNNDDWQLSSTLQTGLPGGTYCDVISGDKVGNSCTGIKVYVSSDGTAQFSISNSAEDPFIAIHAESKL

Sequence of α-glucosidase (P53341 whole entry, looked up): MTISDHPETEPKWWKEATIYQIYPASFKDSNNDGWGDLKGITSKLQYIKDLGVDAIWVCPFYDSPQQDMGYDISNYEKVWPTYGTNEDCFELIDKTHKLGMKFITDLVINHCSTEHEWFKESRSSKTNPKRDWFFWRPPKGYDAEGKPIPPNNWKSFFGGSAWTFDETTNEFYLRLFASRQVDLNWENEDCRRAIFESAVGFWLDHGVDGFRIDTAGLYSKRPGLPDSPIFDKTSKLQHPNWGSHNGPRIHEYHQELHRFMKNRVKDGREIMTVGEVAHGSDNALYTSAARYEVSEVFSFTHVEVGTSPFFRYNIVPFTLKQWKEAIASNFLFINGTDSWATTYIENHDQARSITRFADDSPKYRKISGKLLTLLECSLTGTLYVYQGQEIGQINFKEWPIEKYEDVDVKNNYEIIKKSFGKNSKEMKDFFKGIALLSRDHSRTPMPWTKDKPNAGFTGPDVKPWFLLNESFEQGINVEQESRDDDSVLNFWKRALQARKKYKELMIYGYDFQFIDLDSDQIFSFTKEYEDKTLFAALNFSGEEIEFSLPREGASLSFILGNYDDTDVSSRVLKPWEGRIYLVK

CCCCCC/C=C\CCCCCCCC(=O)O [C22, Palmitoleic acid]
antimicrobial activity [1]: antimicrobial activity

CCCCCCCCCCCCCCCC(=O)O [C21, n-Hexadecanoic acid]
antibacterial effects [2]: good antibacterial effects

C=C(C)C1CC=C(C)CC1 (stereo not drawn) [C4, 4-Isopropenyl-1-methylcyclohexene]
MICs [3]: 0.5 to 1.0 µg/mL

CSSSC [C11, Dimethyltrisulfane]
IC50 (α-glucosidase): 462 ± 44 µM | antimicrobial activity [4]: promising antimicrobial activity | IC50 (α-amylase): 332 ± 23 µM
